Laboratory results: patent publication US20020183313A1, “1,4-benzodiazepinones and their uses as CCK antagonists” (Fujisawa Pharmaceutical Co., Ltd., priority 1996, published 2002)
One block for each molecule: values may come before it.

Tests used:
[1] = molecular target: T1, guinea-pig cerebral cortical membranes (125I-CCK-8 binding) (Cavia porcellus, UniProt H0VZC5); experiment: [125I]CCK-8 binding to guinea-pig cerebral cortical membranes; conditions: test compound 1×10^−8 M; 50 pM 125I-CCK-8; 60 minutes at 37° C.
T1 construct: from tissue; host or cells: guinea-pig cerebral cortex membranes
T1 sequence (H0VZC5 1-426): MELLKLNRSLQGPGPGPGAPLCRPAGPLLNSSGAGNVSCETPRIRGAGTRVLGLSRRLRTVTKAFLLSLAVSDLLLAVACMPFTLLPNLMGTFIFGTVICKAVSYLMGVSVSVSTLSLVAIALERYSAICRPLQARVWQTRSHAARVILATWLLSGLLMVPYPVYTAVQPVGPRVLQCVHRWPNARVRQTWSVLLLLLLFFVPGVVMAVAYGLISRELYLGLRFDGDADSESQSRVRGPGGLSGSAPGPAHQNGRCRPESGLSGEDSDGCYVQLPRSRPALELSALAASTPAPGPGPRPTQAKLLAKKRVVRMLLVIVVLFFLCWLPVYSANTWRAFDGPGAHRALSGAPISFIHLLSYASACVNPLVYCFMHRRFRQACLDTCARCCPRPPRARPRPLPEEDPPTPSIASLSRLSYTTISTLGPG
Experimental: [^125I]CCK-8 binding to guinea-pig cerebral cortical membranes
Guinea-pigs were killed by decapitation and bled to death. Cerebral cortex was removed, minced in a small quantity of 50 mM Tris-HCl buffer (pH 7.4), and homogenized in 20 vol. of the buffer by a glass-teflon homogenizer. The homogenate was centrifuged at 30000× g (16000 rpm) for 10 minutes. The pellet was then resuspended in the same buffer by a glass-teflon homogenizer and recentrifuged at 30000× g for 10 minutes. This procedure (washings) was repeated twice more. The final pellet (membrane) was suspended in incubation medium (see below) so as to obtain a final protein concentration of 4 mg/ml and frozen at −80° C. All manipulations were done at 0-4° C.
(ii) Receptor Binding Assay
The composition of incubation medium was as follows:
10 mM HEPES (pH 6.5), 5 mM MgCl2, 1 mM EGTA, 130 mM NaCI and 0.25 mg/ml bacitracin. Frozen membranes were thawed and aliquots (400 μg, protein) were incubated for 60 minutes under shaking at 37° C. in plastic tubes in 500 μL of incubation medium with 50 pM ^125I-CCK-8 in the presence or absence of test compound (1×10^−8 M). […] After washing the filter with 50 mM Tris-HCl (pH 7.4) buffer containing 0.1% BSA, the radioactivity of the filter was countered. […] The effect of the test compound was expressed as % inhibition of specific ′^125I-CCK-8 binding.

[2] = molecular target: T2, CCK-A (UniProt P30551); experiment: Receptor binding studies, CCK-A
T2 sequence (P30551 1-444): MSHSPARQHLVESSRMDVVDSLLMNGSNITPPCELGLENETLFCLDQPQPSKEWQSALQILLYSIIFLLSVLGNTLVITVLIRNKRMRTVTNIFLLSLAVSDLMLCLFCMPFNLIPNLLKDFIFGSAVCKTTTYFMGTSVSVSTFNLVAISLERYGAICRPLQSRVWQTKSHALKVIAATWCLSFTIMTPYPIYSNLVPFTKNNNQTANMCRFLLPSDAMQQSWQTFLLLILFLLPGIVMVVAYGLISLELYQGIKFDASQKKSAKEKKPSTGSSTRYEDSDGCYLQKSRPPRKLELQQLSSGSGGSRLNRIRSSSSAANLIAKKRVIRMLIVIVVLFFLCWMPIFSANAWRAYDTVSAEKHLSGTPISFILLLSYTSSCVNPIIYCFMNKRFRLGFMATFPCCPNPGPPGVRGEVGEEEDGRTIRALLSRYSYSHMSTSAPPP
Experimental: (§1) Receptor binding studies and gastric emptying in mice
(§2) The tests were carried out in accordance with the method described at pages 571 to 572 in the following literature;
(§3) Harunobu Ito, Hajime Sogabe et al., The Journal of Pharmacology and Experimental Therapeutics, 571, No.2, Vol.268 (1994).

[3] = system: CCK-B; experiment: Receptor binding studies, CCK-B; conditions: ratio IC50 CCK-A / IC50 CCK-B
Experimental: as §1, §2, §3

[4] = molecular target: T3, CCK-B (UniProt H0VZC5); experiment: Receptor binding studies, CCK-B
T3 construct: IC50 (nM) for CCK-B
T3 sequence (H0VZC5 1-426): T1 sequence (H0VZC5 1-426)
Experimental: as §1, §2, §3

[5] = system: mice; experiment: Gastric emptying in mice; type: in vivo
Experimental: as §1, §2, §3

Compound: CC(=O)c1sccc1CN1C(=O)C(NC(=O)Nc2cccc(C)c2)N=C(C(C)C)c2ccccc21 (racemic) [(2)]
Inhibition (%) of specific 125I-CCK-8 binding [1]: 97%

Compound: CCC1=NC(NC(=O)Nc2cccc(C)c2)C(=O)N(CC(=O)C2CCCCC2)c2c(C)cccc21 (racemic) [(B), N-[(3RS)-1-cyclohexylcarbonylmethyl-2,3-dihydro-5-ethyl-9-methyl-2-oxo-1H-1,4-benzodiazepin-3-yl]-N′-(3-methylphenyl)urea]
IC50 [2]: 0.9 nM
selectivity A/B [3]: 0.56
IC50 [4]: 1.6 nM
melting point: 161.2 to 164 °C
Gastric emptying ID50 [5]: 0.4 mg/kg

Compound: Cc1cccc(NC(=O)NC2N=C(C3CC3)c3cccc(C)c3N(CC(=O)C3CCCCC3)C2=O)c1 (racemic) [(D), N-[(3RS)-1-cyclohexylcarbonylmethyl-5-cyclopropyl-2,3-dihydro-9-methyl-2-oxo-1H-1,4-benzodiazepin-3-yl]-N′-(3-methylphenyl)urea]
IC50 [2]: 2 nM
selectivity A/B [3]: 1.82
IC50 [4]: 1.1 nM
melting point: 143.6 to 144.2 °C
Gastric emptying ID50 [5]: 1.8 mg/kg

Compound: CC1=NC(NC(=O)Nc2cccc(C)c2)C(=O)N(CC(=O)C2CCCCC2)c2c(C)cccc21 (racemic) [Compound (A), N-[(3RS)-1-cyclohexylcarbonylmethyl-2,3-dihydro-5,9-dimethyl-2-oxo-1H-1,4-benzodiazepin-3-yl]-N′-(3-methylphenyl)urea]
IC50 [2]: 1.1 nM
selectivity A/B [3]: 0.30
IC50 [4]: 3.7 nM
melting point: 179.2 to 180.9 °C
Gastric emptying ID50 [5]: 0.4 mg/kg

Compound: CCOC(=O)CN1C(=O)C(NC(=O)Nc2cccc(C)c2)N=C(C)c2cccc(C)c21 (racemic) [Example 48-1, N-[(3RS)-2,3-Dihydro-1-ethoxycarbonylmethyl-5,9-dimethyl-2-oxo-1H-1,4-benzodiazepin-3-yl]-N′-(3-methylphenyl)urea]
melting point: 229.7 to 231 °C

Compound: Cc1cccc2c1N(Cc1c[nH]cn1)C(=O)C(NC(=O)Nc1cccc(-c3nnn[nH]3)c1)N=C2C1CCCCC1 (racemic) [Example 49, N-[(3RS)-5-Cyclohexyl-2,3-dihydro-1-(imidazol-4-yl)methyl-9-methyl-2-oxo-1H-1,4-benzodiazepin-3-yl]-N′-[3-(tetrazol-5-yl)phenyl]urea]
melting point: 168.2 to 179.2 °C

Compound: CC(=O)c1ccccc1CN1C(=O)C(NC(=O)Nc2cccc(-c3nnn[nH]3)c2)N=C(C2CCCCC2)c2cccc(C)c21 (racemic) [Example 51, N-[(3RS)-1-(2-acetylbenzyl)-5-cyclohexyl-2,3-dihydro-9-methyl-2-oxo-1H-1,4-benzodiazepin-3-yl]-N′-[3-(tetrazol-5-yl)phenyl]urea]
melting point: 199 to 208 °C

Compound: Cc1cccc(NC(=O)NC2N=C(C3CCCCC3)c3cccc(C)c3N(CC(=O)C3CCCCC3)C2=O)c1 (racemic) [Example 54, N-[(3RS)-5-Cyclohexyl-1-cyclohexylcarbonylmethyl-2,3-dihydro-9-methyl-2-oxo-1H-1,4-benzodiazepin-3-yl]-N′-(3-methylphenyl)urea]
melting point: 159.3 to 169.6 °C

Compound: CCC1=N[C@@H](NC(=O)Nc2cccc(C)c2)C(=O)N(CC(=O)C2CCCCC2)c2c(C)cccc21 [(C), N-[(3R)-1-cyclohexylcarbonylmethyl-5-ethyl-9-methyl-2-oxo-2,3-dihydro-1H-1,4-benzodiazepin-3-yl]-N′-(3-methylphenyl)urea]
IC50 [2]: 0.3 nM
selectivity A/B [3]: 0.30
IC50 [4]: 1 nM
Gastric emptying ID50 [5]: 0.23 mg/kg

Other lines, results leading:

melting point: 171.3 to 174.6 °C
Compound: CC1=NC(NC(=O)Nc2cccc(C)c2)C(=O)N(CC(=O)C2CCCCCC2)c2c(C)cccc21 (racemic) [Example 63, N-[(3RS)-1-Cycloheptylcarbonylmethyl-2,3-dihydro-5,9-dimethyl-2-oxo-1H-1,4-benzodiazepin-3-yl]-N′-(3-methylphenyl)urea]

melting point: 150.1 to 155.5 °C
Compound: CC1=NC(NC(=O)Nc2cccc(C)c2)C(=O)N(CC(=O)C2CCCC2)c2c(C)cccc21 (racemic) [Example 65, N-[(3RS)-1-Cyclopentylcarbonylmethyl-2,3-dihydro-5,9-dimethyl-2-oxo-1H-1,4-benzodiazepin-3-yl]-N′-(3-methylphenyl)urea]

melting point: 189 to 189.5 °C
Compound: CCC1=NC(NC(=O)Nc2cccc(C)c2)C(=O)N(CC(=O)N2CCCCCCC2)c2c(C)cccc21 (racemic) [Example 66, N-[(3RS)-1-(Azacyclooctan-1-yl)carbonylmethyl-2,3-dihydro-5-ethyl-9-methyl-2-oxo-1H-1,4-benzodiazepin-3-yl]-N′-(3-methylphenyl)urea]

melting point: 131.7 to 132.8 °C
Compound: Cc1cccc(NC(=O)NC2N=C(C(C)C)c3cccc(C)c3N(CC(=O)N3CCCCCCC3)C2=O)c1 (racemic) [Example 67, N-[(3RS)-1-(Azacyclooctan-1-yl)carbonylmethyl-2,3-dihydro-5-isopropyl-9-methyl-2-oxo-1H-1,4-benzodiazepin-3-yl]-N′-(3-methylphenyl)urea]

melting point: 131.6 to 133.4 °C
Compound: Cc1cccc(NC(=O)NC2N=C(CC(C)C)c3cccc(C)c3N(CC(=O)N3CCCCCCC3)C2=O)c1 (racemic) [Example 69, N-[(3RS)-1-(Azacyclooctan-1-yl)carbonylmethyl-2,3-dihydro-5-isobutyl-9-methyl-2-oxo-1H-1,4-benzodiazepin-3-yl]-N′-(3-methylphenyl)urea]

melting point: 153.6 to 155.3 °C
Compound: Cc1cccc(NC(=O)NC2N=C(C3CCCCC3)c3cccc(C)c3N(CC(=O)N3CCCCCCC3)C2=O)c1 (racemic) [Example 70, N-[(3RS)-1-(Azacyclooctan-1-yl)carbonylmethyl-5-cyclohexyl-2,3-dihydro-9-methyl-2-oxo-1H-1,4-benzodiazepin-3-yl]-N′-(3-methylphenyl)urea]

melting point: 214.5 to 216 °C
Compound: Cc1cccc(NC(=O)NC2N=C(CO)c3cccc(C)c3N(CC(=O)N3CCCCCCC3)C2=O)c1 (racemic) [Example 71-2, N-[(3RS)-1-(Azacyclooctan-1-yl)carbonylmethyl-2,3-dihydro-5-hydroxymethyl-9-methyl-2-oxo-1H-1,4-benzodiazepin-3-yl]-N′-(3-methylphenyl)urea]

melting point: 162.9 to 164.4 °C
Compound: CC1=NC(NC(=O)Nc2cccc(C)c2)C(=O)N(CC(=O)C2CCCCCCC2)c2c(C)cccc21 (racemic) [Example 72, N-[(3RS)-1-Cyclooctylcarbonylmethyl-2,3-dihydro-5,9-dimethyl-2-oxo-1H-1,4-benzodiazepin-3-yl]-N′-(3-methylphenyl)urea]

melting point: 152.3 to 154.8 °C
Compound: Cc1cccc(NC(=O)NC2N=C(CC(C)C)c3cccc(C)c3N(CC(=O)C3CCCCC3)C2=O)c1 (racemic) [Example 73, N-[(3RS)-1-Cyclohexylcarbonylmethyl-2,3-dihydro-5-isobutyl-9-methyl-2-oxo-1H-1,4-benzodiazepin-3-yl]-N′-(3-methylphenyl)urea]
